pIC50: −log10 of the molar value.
How the values were obtained:
[1] = molecular target: T1, recombinant METTL3/METTL14 complex (Homo sapiens, UniProt Q86U44); assay: METTL3/14 Scintillation Proximity Assay (SPA), RNA methyltransferase activity; type: biochemical; conditions: 5.31 nM METTL3/14 complex, 250 nM RNA substrate, 1 μM 3H-SAM, 90 min; for compounds marked * best of the two separated forms
T1 construct: purchased Active Motif 311970; host or cells: Sf9 cells

[2] = test system: Caov-3 cells; assay: Caov-3 cellular viability assay (ATP-Lite, 72 h); type: cell-based; conditions: Homo sapiens, ATP-Lite luminescence, % viability relative to DMSO
How it was run: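 IC50 values come from concentration-response fits of luminescent ATP content (ATP-Lite One Step), normalised as % viability versus DMSO. Compound exposure was 72 h at 37 °C in RPMI-1640/10% FBS with 0.1% final DMSO. Wells held 10000 cells each.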

[3] = test system: Kasumi-1 cells; assay: Kasumi-1 cellular viability assay (ATP-Lite, 72 h); type: cell-based; conditions: Homo sapiens, ATP-Lite luminescence, % viability relative to DMSO
How it was run: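 Viability was read by ATP-Lite One Step luminescence after 72 h compound treatment at 37 °C/5% CO2, normalised to DMSO control, with IC50 fitted from concentration-response. Cells were Kasumi-1 (AML FAB M2) at 15000 per well in RPMI-1640/10% FBS, 0.1% DMSO final.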

T1 sequence (Q86U44 whole entry): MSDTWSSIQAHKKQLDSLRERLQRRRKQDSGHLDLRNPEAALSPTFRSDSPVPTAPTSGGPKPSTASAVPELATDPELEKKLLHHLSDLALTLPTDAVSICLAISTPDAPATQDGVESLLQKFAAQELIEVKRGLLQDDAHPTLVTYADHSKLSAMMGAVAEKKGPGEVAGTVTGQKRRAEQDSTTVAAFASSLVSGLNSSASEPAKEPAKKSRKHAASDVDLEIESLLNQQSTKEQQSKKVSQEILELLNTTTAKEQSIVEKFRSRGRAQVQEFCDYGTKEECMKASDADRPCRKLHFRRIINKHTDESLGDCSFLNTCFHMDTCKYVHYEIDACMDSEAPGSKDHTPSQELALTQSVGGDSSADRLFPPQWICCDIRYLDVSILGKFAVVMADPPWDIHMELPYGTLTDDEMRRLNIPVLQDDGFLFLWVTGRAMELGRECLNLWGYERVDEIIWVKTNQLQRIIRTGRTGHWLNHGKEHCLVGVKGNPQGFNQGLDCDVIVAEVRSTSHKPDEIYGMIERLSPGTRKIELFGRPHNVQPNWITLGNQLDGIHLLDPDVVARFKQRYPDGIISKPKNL
T1 sequence (Q9HCE5 whole entry partner): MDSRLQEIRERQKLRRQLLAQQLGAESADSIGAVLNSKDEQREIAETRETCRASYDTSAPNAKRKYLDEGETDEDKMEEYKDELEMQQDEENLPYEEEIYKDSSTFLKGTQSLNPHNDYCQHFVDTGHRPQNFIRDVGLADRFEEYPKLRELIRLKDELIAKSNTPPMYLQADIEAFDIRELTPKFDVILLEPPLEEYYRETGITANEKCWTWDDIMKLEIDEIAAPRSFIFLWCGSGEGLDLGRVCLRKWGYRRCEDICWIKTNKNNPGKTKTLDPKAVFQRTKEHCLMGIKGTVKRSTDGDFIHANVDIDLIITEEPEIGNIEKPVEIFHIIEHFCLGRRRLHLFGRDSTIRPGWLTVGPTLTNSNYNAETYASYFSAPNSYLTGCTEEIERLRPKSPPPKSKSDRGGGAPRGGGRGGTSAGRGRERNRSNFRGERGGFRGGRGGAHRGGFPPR

pIC50 [1] | Compound | pIC50 [2] | pIC50 [3]
6.30 to 7.30 | O=C(NCc1ccc(N2CCCC(NCC34CC(F)(C3)C4)C2)nn1)c1cc(=O)n2ccccc2n1 (stereo not drawn) [Compound 011, N-((6-(3-(((3-fluorobicyclo[1.1.1]pentan-1-yl)methyl)amino)piperidin-1-yl)pyridazin-3-yl)methyl)-4-oxo-4H-pyrido[1,2-a]pyrimidine-2-carboxamide] | < 5.30 | < 5.30
≥ 7.30 | COc1cncc(-c2cn(Cc3ccc(N4CCC[C@@H](NCC5CCC5)C4)nn3)nn2)c1 [Compound 012, (R)-N-(cyclobutylmethyl)-1-(6-((4-(5-methoxypyridin-3-yl)-1H-1,2,3-triazol-1-yl)methyl)pyridazin-3-yl)piperidin-3-amine] | 5.30 to 6.30 | 5.30 to 6.30
≥ 7.30 | COc1cc(-c2cn(Cc3ccc(N4CCC[C@@H](NCC5CCC5)C4)nn3)nn2)c2cncn2c1 [Compound 013, (R)-N-(cyclobutylmethyl)-1-(6-((4-(6-methoxyimidazo[1,5-a]pyridin-8-yl)-1H-1,2,3-triazol-1-yl)methyl)pyridazin-3-yl)piperidin-3-amine] | ≥ 6.30 | 5.30 to 6.30
≥ 7.30 | COc1cc(-c2cn(Cc3ccc(N4CCC[C@@H](NCC5CC5)C4)nn3)nn2)c2cn[nH]c2c1 [Compound 015, (R)-N-(cyclopropylmethyl)-1-(6-((4-(6-methoxy-1H-indazol-4-yl)-1H-1,2,3-triazol-1-yl)methyl)pyridazin-3-yl)piperidin-3-amine] | ≥ 6.30 | 5.30 to 6.30
≥ 7.30 | O=c1cc(-c2cn(Cc3ccc(N4CCC[C@@H](NCC5CCC5)C4)nn3)nn2)nc2ccccn12 [Compound 017, (R)-2-(1-((6-(3-((cyclobutylmethyl)amino)piperidin-1-yl)pyridazin-3-yl)methyl)-1H-1,2,3-triazol-4-yl)-4H-pyrido[1,2-a]pyrimidin-4-one] | < 5.30 | < 5.30
≥ 7.30 | COc1cc(-c2cn(Cc3ccc(N4CCC[C@@H](NCC56CC(F)(C5)C6)C4)nn3)nn2)c2cn[nH]c2c1 [Compound 018, (R)-N-((3-fluorobicyclo[1.1.1]pentan-1-yl)methyl)-1-(6-((4-(6-methoxy-1H-indazol-4-yl)-1H-1,2,3-triazol-1-yl)methyl)pyridazin-3-yl)piperidin-3-amine] | ≥ 6.30 | 5.30 to 6.30
≥ 7.30 | COc1cnc(C#N)c(-c2cn(Cc3ccc(N4CCC[C@@H](NCC5CCC5)C4)nn3)nn2)c1 [Compound 019, (R)-3-(1-((6-(3-((cyclobutylmethyl)amino)piperidin-1-yl)pyridazin-3-yl)methyl)-1H-1,2,3-triazol-4-yl)-5-methoxypicolinonitrile] | < 5.30 | < 5.30
≥ 7.30 | COc1cc(-c2cn(Cc3ccc(N4CCCC(NCC56CC(C)(C5)C6)C4)nn3)nn2)c2cn[nH]c2c1 (stereo not drawn) [Compound 020, 1-(6-((4-(6-methoxy-1H-indazol-4-yl)-1H-1,2,3-triazol-1-yl)methyl)pyridazin-3-yl)-N-((3-methylbicyclo[1.1.1]pentan-1-yl)methyl)piperidin-3-amine] | 5.30 to 6.30 | 5.30 to 6.30
≥ 7.30 | COc1cc(-c2cn(Cc3ccc(N4CCC[C@@H](NCCC(C)(C)C)C4)nn3)nn2)c2cn[nH]c2c1 [Compound 024, (R)-N-(3,3-dimethylbutyl)-1-(6-((4-(6-methoxy-1H-indazol-4-yl)-1H-1,2,3-triazol-1-yl)methyl)pyridazin-3-yl)piperidin-3-amine] | < 5.30 | < 5.30
≥ 7.30 | COc1cc(-c2cn(Cc3ccc(N4CCCC(NC5CC56CCC6)C4)nn3)nn2)c2cn[nH]c2c1 (stereo not drawn) [Compound 025, 1-(6-((4-(6-methoxy-1H-indazol-4-yl)-1H-1,2,3-triazol-1-yl)methyl)pyridazin-3-yl)-N-(spiro[2.3]hexan-1-yl)piperidin-3-amine] | ≥ 6.30 | 5.30 to 6.30
≥ 7.30 | COc1cc(-c2cn(Cc3cnc(N4CCCC(NCC5CCC5)C4)s3)nn2)c2cn[nH]c2c1 (stereo not drawn) [Compound 026, N-(cyclobutylmethyl)-1-(5-((4-(6-methoxy-1H-indazol-4-yl)-1H-1,2,3-triazol-1-yl)methyl)thiazol-2-yl)piperidin-3-amine] | < 5.30 | 5.30 to 6.30
≥ 7.30 | COc1cc(-c2cn(Cn3ccc(N4CCCC(NCC5CCC5)C4)cc3=O)nn2)c2cn[nH]c2c1 (stereo not drawn) [Compound 027, 4-(3-((cyclobutylmethyl)amino)piperidin-1-yl)-1-((4-(6-methoxy-1H-indazol-4-yl)-1H-1,2,3-triazol-1-yl)methyl)pyridin-2(1H)-one] | ≥ 6.30 | ≥ 6.30
≥ 7.30 | COc1cc(-c2cn(Cn3ncc(N4CCCC(NCC5CCC5)C4)cc3=O)nn2)c2cn[nH]c2c1 (stereo not drawn) [Compound 028, 5-(3-((cyclobutylmethyl)amino)piperidin-1-yl)-2-((4-(6-methoxy-1H-indazol-4-yl)-1H-1,2,3-triazol-1-yl)methyl)pyridazin-3(2H)-one] | 5.30 to 6.30 | 5.30 to 6.30
≥ 7.30 | COc1cc(-c2cn(Cc3ccc(N4CCC[C@@H](NC5CCC5)C4)nn3)nn2)c2cn[nH]c2c1 [Compound 030, (R)-N-cyclobutyl-1-(6-((4-(6-methoxy-1H-indazol-4-yl)-1H-1,2,3-triazol-1-yl)methyl)pyridazin-3-yl)piperidin-3-amine] | 5.30 to 6.30 | 5.30 to 6.30
≥ 7.30 | COc1cc(-c2cn(Cc3ccc(N4CCC[C@@H](NCC(C)C)C4)nn3)nn2)c2cn[nH]c2c1 [Compound 031, (R)-N-isobutyl-1-(6-((4-(6-methoxy-1H-indazol-4-yl)-1H-1,2,3-triazol-1-yl)methyl)pyridazin-3-yl)piperidin-3-amine] | 5.30 to 6.30 | 5.30 to 6.30
≥ 7.30 | COc1cc(-c2cn(Cc3ccc(N4CCC[C@@H](NCC(C)(C)C)C4)nn3)nn2)c2cn[nH]c2c1 [Compound 032, (R)-1-(6-((4-(6-methoxy-1H-indazol-4-yl)-1H-1,2,3-triazol-1-yl)methyl)pyridazin-3-yl)-N-neopentylpiperidin-3-amine] | ≥ 6.30 | 5.30 to 6.30
≥ 7.30 | COc1cc(-c2cn(Cc3nnc(N4CCCC(NCC5CCC5)C4)s3)nn2)c2cn[nH]c2c1 (stereo not drawn) [Compound 036, N-(cyclobutylmethyl)-1-(5-((4-(6-methoxy-1H-indazol-4-yl)-1H-1,2,3-triazol-1-yl)methyl)-1,3,4-thiadiazol-2-yl)piperidin-3-amine] | < 5.30 | < 5.30
≥ 7.30 | COc1cc(-c2cn(Cc3ccc(N4CCC[C@@H](NCC5CCC5)C4)nc3)nn2)c2cn[nH]c2c1 [Compound 040, (R)-N-(cyclobutylmethyl)-1-(5-((4-(6-methoxy-1H-indazol-4-yl)-1H-1,2,3-triazol-1-yl)methyl)pyridin-2-yl)piperidin-3-amine] | ≥ 6.30 | ≥ 6.30
≥ 7.30 | COc1cc(-c2cn(Cc3ccc(N4CCC[C@@H](NCC5CCC5)C4)cn3)nn2)c2cn[nH]c2c1 [Compound 042, (R)-N-(cyclobutylmethyl)-1-(6-((4-(6-methoxy-1H-indazol-4-yl)-1H-1,2,3-triazol-1-yl)methyl)pyridin-3-yl)piperidin-3-amine] | ≥ 6.30 | ≥ 6.30
≥ 7.30 | COc1cc(-c2cn(Cc3cnc(N4CCCC(NCC5CCC5)C4)cn3)nn2)c2cn[nH]c2c1 (stereo not drawn) [Compound 047, N-(cyclobutylmethyl)-1-(5-((4-(6-methoxy-1H-indazol-4-yl)-1H-1,2,3-triazol-1-yl)methyl)pyrazin-2-yl)piperidin-3-amine] | < 5.30 | 5.30 to 6.30
≥ 7.30 | COc1cncc(-c2cn(Cc3ccc(N4C[C@@H](F)C[C@@H](NCC5CCC5)C4)nn3)nn2)c1 [Compound 056, (3R,5S)-N-(cyclobutylmethyl)-5-fluoro-1-(6-((4-(5-methoxypyridin-3-yl)-1H-1,2,3-triazol-1-yl)methyl)pyridazin-3-yl)piperidin-3-amine] | < 5.30 | < 5.30
≥ 7.30 | Clc1cc(-c2cn(Cc3ccc(N4CCC[C@@H](NCC5CCC5)C4)nn3)nn2)c2cn[nH]c2c1 [Compound 057, (R)-1-(6-((4-(6-chloro-1H-indazol-4-yl)-1H-1,2,3-triazol-1-yl)methyl)pyridazin-3-yl)-N-(cyclobutylmethyl)piperidin-3-amine] | 5.30 to 6.30 | 5.30 to 6.30
≥ 7.30 | O=C(NCc1ccc(N2CCC[C@@H](NCC3CCC3)C2)cn1)c1cc(=O)n2ccccc2n1 [Compound 060, (R)-N-((5-(3-((cyclobutylmethyl)amino)piperidin-1-yl)pyridin-2-yl)methyl)-4-oxo-4H-pyrido[1,2-a]pyrimidine-2-carboxamide] | < 5.30 | < 5.30
≥ 7.30 | COc1cncc(-c2cn(Cn3ccc(N4CCC[C@@H](NCC5CCC5)C4)cc3=O)nn2)c1 [Compound 063, (R)-4-(3-((cyclobutylmethyl)amino)piperidin-1-yl)-1-((4-(5-methoxypyridin-3-yl)-1H-1,2,3-triazol-1-yl)methyl)pyridin-2(1H)-one] | 5.30 to 6.30 | 5.30 to 6.30

Source: US20250002475A1 (EPICS THERAPEUTICS, priority 2023, published 2025)
